Assay [1] addresses T1, Endoribonuclease toxin MazF (Escherichia coli K-12, UniProt P0AE70).
T1 sequence (P0AE70 whole entry): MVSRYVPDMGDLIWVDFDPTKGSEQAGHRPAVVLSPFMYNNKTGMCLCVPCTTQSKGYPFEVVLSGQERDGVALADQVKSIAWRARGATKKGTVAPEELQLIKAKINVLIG
Kind of assay: fluorescent RNA oligo signal without MazF, dose response, counter-screen for MazEF activator project, biochemical, fluorescence, single-stranded RNase substrate (AID 588502). Format: functional. (In general: Counterscreens check selectivity or assay interference.)

Assay [2] deals with T1, Endoribonuclease toxin MazF. Kind of assay: MazF toxin RNase activators, dose response, biochemical, fluorescence, single-stranded RNA substrate, uHTS hits (AID 588481). Format: functional.
Assay [3] in a line: NIH-3T3 fibroblast cytotoxicity, dose response, cytotoxicity control, cell-based, fluorescence, Alamar Blue, secondary assay (AID 2327).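 Note: NIH-3T3 mouse fibroblasts cultured with fluconazole at 8 µg/mL.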 Format: functional. A general note: Alamar Blue is a resazurin reagent that responds to reducing activity.
Another assay addresses T2, Streptokinase A (Streptococcus pyogenes serotype M1, UniProt P10520).
T2 sequence (P10520 whole entry): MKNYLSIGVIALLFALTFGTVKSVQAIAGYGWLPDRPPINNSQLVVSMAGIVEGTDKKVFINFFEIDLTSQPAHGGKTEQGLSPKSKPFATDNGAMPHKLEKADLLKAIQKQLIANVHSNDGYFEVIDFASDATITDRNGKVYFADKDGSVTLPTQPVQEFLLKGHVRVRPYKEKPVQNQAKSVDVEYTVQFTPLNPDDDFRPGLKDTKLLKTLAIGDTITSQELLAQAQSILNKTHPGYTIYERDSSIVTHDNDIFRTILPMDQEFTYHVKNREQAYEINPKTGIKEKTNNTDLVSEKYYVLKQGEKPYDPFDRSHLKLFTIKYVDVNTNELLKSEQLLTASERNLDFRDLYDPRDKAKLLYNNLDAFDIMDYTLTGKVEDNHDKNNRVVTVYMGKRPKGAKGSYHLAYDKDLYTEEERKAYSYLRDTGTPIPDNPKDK
Kind of assay: S. pyogenes streptokinase expression inhibitors, potency, dose response, plasminogen activation absorbance, OD405 (AID 1914).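 Note: secreted streptokinase activity via plasminogen activation per viability signal from cell pellet.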 Format: functional, Streptococcus pyogenes M1 GAS.

In assay [4] the test system is Streptococcus sp. 'group A'. Kind of assay: growth inhibition of control SK(-) GAS strain, dose response, counter-screen for streptokinase expression inhibitor project, luminescence, kanamycin, BacTiterGlo, confirmation (AID 1900). The format is functional, organism-based.
The subject of another assay is Streptococcus. Kind of assay: Group A Streptococcus viability loss, dose response, counter-screen for streptokinase expression inhibitor project, luminescence, BacTiterGlo (AID 1915).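 Note: potency for reduction of bacterial viability or growth.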 The format is functional, organism-based.
Assay [5] is described as follows: C. albicans growth with fluconazole, confirmation, fluorescence, retest (AID 2467). Format: functional, cell-based.
Assay [6] is described as follows: inhibitors of clade B AD8 Env fusion, dose response, cell-based, cherry-pick (AID 652062).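 Note: luciferase signal from cell-cell fusion driven by HIV-1 clade B AD8 Env; potency is for inhibitors of fusion seen as a drop in luminescence.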 The format is functional.
The nature of assay [7]: inhibitors of HIV Env-driven cell fusion, dose response, cherry-pick (AID 652057). The format is functional, cell-based.
The next assay concerns the target T3, Cytochrome P450 1A2 (Homo sapiens, UniProt P05177).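 Note: PubChem cytochrome P450 panel assay, CYP1A2 panel member.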
T3 sequence (P05177 whole entry): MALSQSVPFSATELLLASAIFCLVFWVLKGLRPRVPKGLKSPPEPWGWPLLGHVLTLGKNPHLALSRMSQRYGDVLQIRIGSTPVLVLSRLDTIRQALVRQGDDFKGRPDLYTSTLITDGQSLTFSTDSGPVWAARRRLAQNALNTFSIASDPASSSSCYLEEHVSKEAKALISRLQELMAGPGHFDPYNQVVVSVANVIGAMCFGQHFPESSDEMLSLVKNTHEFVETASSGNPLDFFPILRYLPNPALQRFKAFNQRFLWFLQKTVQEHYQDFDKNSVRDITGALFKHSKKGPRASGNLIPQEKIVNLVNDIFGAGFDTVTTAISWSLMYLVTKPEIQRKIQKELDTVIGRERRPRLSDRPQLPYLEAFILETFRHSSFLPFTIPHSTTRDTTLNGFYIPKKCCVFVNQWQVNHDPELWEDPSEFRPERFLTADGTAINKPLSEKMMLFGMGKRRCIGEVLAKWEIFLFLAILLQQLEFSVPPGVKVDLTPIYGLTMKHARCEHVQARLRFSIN

Assay [8] in a line: ZM109 Env clade C HIV-1 fusion inhibitors, dose response, HeLa effector, CEM target cells, luciferase, cherry-pick (AID 652058). The format is functional, cell-based.
Assay [9] is described as follows: off-target signal loss in HeLa-CEM21 co-culture – HeLa F-luc CTL cells, cherry-picked, counter-screen for HIV-1 Env fusion inhibitor project, dose response (AID 652040).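 Note: potency for signal decrease marking cytotoxic or nonspecific inhibition.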 The format is functional, cell-based.
For assay [10], the target named is T4, RNA-binding protein pos-1 (Caenorhabditis elegans, UniProt G5EF15).
T4 sequence (G5EF15 whole entry): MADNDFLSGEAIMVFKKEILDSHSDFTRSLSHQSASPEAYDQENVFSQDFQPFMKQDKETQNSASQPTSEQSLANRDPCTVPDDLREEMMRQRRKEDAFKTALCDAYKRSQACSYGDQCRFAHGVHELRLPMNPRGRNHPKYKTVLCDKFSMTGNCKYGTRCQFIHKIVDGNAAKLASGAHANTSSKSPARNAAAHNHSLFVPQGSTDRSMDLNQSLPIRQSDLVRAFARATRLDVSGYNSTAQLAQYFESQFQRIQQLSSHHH
Kind of assay: inhibitors of POS-1/mex-3 RNA binding, dose response, biochemical, fluorescence polarization (AID 1964).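 Note: purified POS-1 fused to maltose binding protein made in E. coli; potency of compounds blocking POS-1 binding to fluorescent RNA.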

Assay [11] addresses T5, Zinc finger protein mex-5 (Caenorhabditis elegans, UniProt Q9XUB2).
T5 sequence (Q9XUB2 whole entry): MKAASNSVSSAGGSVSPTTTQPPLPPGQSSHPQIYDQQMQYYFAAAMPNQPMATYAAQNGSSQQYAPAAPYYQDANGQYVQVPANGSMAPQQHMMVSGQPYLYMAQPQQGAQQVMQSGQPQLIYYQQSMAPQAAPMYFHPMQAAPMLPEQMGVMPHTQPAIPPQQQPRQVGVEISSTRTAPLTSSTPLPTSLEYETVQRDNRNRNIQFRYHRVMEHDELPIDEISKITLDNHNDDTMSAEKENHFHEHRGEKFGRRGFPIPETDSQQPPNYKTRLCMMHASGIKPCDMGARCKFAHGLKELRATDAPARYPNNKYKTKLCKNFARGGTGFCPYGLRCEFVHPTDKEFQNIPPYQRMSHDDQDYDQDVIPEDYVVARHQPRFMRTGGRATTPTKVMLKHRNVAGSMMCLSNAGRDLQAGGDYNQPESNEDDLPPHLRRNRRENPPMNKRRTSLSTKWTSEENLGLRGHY
Kind of assay: MEX-5/TCR-2 RNA interaction inhibitors, dose response, biochemical, C. elegans, fluorescence polarization (AID 1960).

The next assay deals with HEK293. Kind of assay: inhibitors of LMP1-driven NF-kB reporter, dose response, cell-based, HEK293, luciferase, cherry-pick (AID 588343). Format: functional. To be noted: Homo sapiens.
The target of the next assay is T6, Protein RecA (Mycobacterium tuberculosis, UniProt P9WHJ3).
T6 sequence (P9WHJ3 whole entry): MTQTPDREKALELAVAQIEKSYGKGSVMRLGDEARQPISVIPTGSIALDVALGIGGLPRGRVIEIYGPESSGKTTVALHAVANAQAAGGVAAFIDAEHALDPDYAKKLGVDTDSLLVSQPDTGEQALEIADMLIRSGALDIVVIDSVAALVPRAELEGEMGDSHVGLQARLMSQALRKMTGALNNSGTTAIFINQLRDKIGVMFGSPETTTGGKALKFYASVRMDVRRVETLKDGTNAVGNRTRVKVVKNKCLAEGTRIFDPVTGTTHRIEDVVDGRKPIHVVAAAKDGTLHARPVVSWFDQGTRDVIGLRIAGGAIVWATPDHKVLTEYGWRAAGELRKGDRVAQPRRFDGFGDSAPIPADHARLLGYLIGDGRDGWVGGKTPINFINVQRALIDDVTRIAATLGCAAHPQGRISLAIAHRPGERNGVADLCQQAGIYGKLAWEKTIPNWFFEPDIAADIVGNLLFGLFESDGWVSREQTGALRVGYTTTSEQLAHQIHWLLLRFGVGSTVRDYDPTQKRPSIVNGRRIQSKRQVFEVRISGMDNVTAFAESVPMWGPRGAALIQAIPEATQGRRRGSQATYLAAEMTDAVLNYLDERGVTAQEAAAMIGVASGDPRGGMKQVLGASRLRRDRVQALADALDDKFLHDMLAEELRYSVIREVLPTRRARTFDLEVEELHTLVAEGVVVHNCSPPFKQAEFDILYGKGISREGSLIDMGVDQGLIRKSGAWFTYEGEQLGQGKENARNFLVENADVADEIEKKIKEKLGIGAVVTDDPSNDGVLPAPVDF
Kind of assay: Fluorescence Cell-Free Homogeneous Dose Retest to Identify Inhibitors of RecA-Intein Splicing Activity. [Related pubchem assays (depositor defined):AID2097, AID2223, AID489010, AID492950]. The format is functional.

Assay [12] addresses T7, Replicative DNA helicase DnaB (Mycobacterium tuberculosis, UniProt P9WMR3).
T7 sequence (P9WMR3 whole entry): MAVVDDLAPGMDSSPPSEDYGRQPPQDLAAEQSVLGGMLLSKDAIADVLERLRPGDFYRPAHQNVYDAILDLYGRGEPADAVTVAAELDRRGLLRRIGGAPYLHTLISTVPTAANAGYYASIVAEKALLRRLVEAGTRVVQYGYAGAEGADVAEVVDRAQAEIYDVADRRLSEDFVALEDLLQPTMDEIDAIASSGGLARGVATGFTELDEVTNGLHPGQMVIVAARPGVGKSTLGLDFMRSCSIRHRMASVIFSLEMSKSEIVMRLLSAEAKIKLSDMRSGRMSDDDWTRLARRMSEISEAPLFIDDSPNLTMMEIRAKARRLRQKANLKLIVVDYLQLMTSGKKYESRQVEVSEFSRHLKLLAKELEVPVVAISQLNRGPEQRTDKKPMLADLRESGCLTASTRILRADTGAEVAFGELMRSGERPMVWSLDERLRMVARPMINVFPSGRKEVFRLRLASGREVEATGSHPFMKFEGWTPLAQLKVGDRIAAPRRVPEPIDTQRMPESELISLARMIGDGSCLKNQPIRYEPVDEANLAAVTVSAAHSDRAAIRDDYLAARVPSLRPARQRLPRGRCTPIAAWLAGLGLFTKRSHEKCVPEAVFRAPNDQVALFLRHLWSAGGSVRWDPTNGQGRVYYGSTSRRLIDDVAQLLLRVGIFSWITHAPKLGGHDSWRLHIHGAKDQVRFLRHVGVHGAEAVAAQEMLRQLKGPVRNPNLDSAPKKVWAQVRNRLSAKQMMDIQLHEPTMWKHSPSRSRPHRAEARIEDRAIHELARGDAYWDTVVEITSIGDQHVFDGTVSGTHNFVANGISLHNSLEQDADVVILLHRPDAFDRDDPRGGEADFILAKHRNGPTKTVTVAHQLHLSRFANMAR
Kind of assay: DnaB intein splicing inhibitors, dose response, biochemical, cell-free fluorescence (AID 449749). The format is functional.

Active and inactive are the calls of the source.

The text below walks through data of ChEMBL document CHEMBL1201862, “PubChem BioAssay data set” (2004).

For orientation: EC50 means the concentration giving half of the maximal effect. Broadly, the AC50 is the concentration giving half of the maximal activity seen.

Consider `CSc1nnc(N2C(=O)C(O)=C(C(=O)c3ccc(C)o3)C2c2ccc(C)cc2)s1` (stereo not given), for which the EC50 in assay [1] was > 99 µM (inactive); in assay [2], 9.87 µM (active).

Take `NNS(=O)(=O)c1ccc(Sc2ccccn2)c([N+](=O)[O-])c1`: the EC50 is > 99 µM (inactive) in assay [1] and 52.6 µM (inactive) in assay [2].

For `Cc1ccc(O)c(C2=NNC(c3ccc(Cl)cc3)C2)c1` (stereo not given), the EC50 is > 160 µM (inactive) in [3]; > 150 µM (not active) on Streptokinase A; 4.36 µM (active) in assay [4]; 9.12 µM (active) with Streptococcus; 3.23 µM (active) in [5].

`O=C(NC1CCCCC1)C(c1cccs1)N(Cc1cccs1)C(=O)c1ccco1` (stereo not given): the AC50 in [6] is 1.55 µM (active); in assay [7] it was 6.72 µM (active); on Cytochrome P450 1A2, 20 µM (inconclusive); in assay [8], 5.68 µM (active); in assay [9], 48.2 µM (active).

As for `Cc1ccc(-c2cc(-c3ccccc3)nc(N)c2C#N)o1`, the EC50 was 44.6 µM (inactive) in assay [1] and > 99 µM (inactive) in [2].

On to `CC1CC(=O)C2=C(C1)OC(N)=C(C#N)C2c1coc2ccccc2c1=O` (stereo not given), for which the EC50 in [1] and in [2] was > 99 µM (inactive) each time.

As to `COc1ccc2c(c1)S/C(=C\C(=O)c1ccncc1)N2C`, the concentration giving a half-maximal response (EC50) in [10] is > 300 µM (not active); in [11], > 300 µM (not active); in assay [1], > 99 µM (inactive); in [2] it was > 99 µM (inactive).

Regarding `CCN(Cc1nc(O)c2ccc(Cl)cc2n1)C(=O)c1cc(C2CC2)nn1-c1ccccc1`, the AC50 in assay [6] was 4.62 µM (active); in [7], 2.67 µM (active); in assay [8], 5.14 µM (active); in assay [9] it was 6.32 µM (active).

In the case of `O=C(c1ccc(Cl)cc1)N1CCN(CCOc2ccccc2)CC1`, the AC50 with HEK293 is > 350 µM (inactive).

Take `Cc1nc(SCC(=O)Nc2cc(C)on2)c2c3c(sc2n1)CCCC3`: the EC50 in assay [1] and in [2] was > 99 µM (inactive) in each case.

On to `COc1cc(/C=C2/SC(=S)N(Cc3ccccc3)C2=O)ccc1OCC(=O)O`, for which the values for the concentration at half-maximal activity (AC50) (in the assay on HEK293; in [12]) were 45.2 µM (active) and 4.22 µM (active), respectively. The 50% effective concentration (EC50) at Protein RecA was 6.85 µM (active).

Take `O=C(Nc1ccccc1)c1nn(-c2ccccc2)c(=O)cc1C(F)(F)F`: the 50% effective concentration (EC50) in assay [10] is > 300 µM (not active); in assay [11] it was > 300 µM (not active); in [1] it was > 99 µM (inactive); in [2], > 99 µM (inactive).

As to `C[C@H]1CN([C@@H](C)CO)S(=O)(=O)c2ccc(Br)cc2O[C@H]1CN(C)Cc1ccc(F)cc1`, the AC50 is 30.9 µM (active) in assay [6], 3.67 µM (active) in [7] and 5.86 µM (active) in assay [8].

On to `COc1ccc(-c2c(C)nn3c(C(F)(F)F)cc(C)nc23)cc1`, for which the AC50 in assay [9] was 17.8 µM (active).
